Data taken from US20150224120A1, “COMPOSITIONS AND METHODS FOR TREATING HYPERPROLINEMIA-ASSOCIATED MENTAL DISORDERS” (priority 2011, published 2015).
Entries after “also recorded” stand apart in the source; their conditions may differ. Where two headings read alike, the source gives them in different places.

What was measured:
[1] = male infants receiving supplements (≦2000 IU/day) during first year of life; cited from earlier work
PRODH expression [2] = settings: bronchial smooth muscle cells, treated (n=3) vs untreated (n=3), p=0.01; cited from earlier work
plasma proline [3] = experiment: Fasting plasma proline before and after oral Vitamin D supplementation; type: in vivo; settings: oral 2000 IU daily, five fasting measurements before and five over subsequent five days, p=0.059
From the text: Affymetrix microarray data was accessed via the NCBI GEO database, accession numbers GDS1847 (FIG. 4A) and GDS2628 (FIG. 4B). […] Five fasting plasma proline measurements were obtained prior to the initiation of Vitamin D supplementation (2000 IU daily), after which an additional five fasting plasma measurements were obtained over the subsequent five days.
As illustrated by FIG. 4, the biologically active form of vitamin D (1α,25-dihydroxyvitamin D3 [1α,25(OH)2D3]) is also a potent regulator of PRODH expression. […] Moreover, in vivo (FIG. 4C), proline levels are decreased by treatment with oral vitamin D.

PRODH expression [4] = settings: intestinal epithelial cells, treated (n=5) vs untreated control cells (n=5), p=0.044 one-tailed, cited from earlier work
[5] = women with high vs low dietary consumption; cited from earlier work
plasma proline [6] = settings: previously reported (Jacquet et al., 2005); cited from earlier work
PRODH expression [7] = experiment: Peripheral PRODH expression in first-episode never-medicated SZ patients pre and post treatment (Affymetrix U133v2.0 arrays); type: in vivo, human
From the text: Change in log PRODH were plotted for each subject prior to-(100%), and post-treatment onset. All of the subjects received risperidone. The mean time between blood draws was 8.3 days. […] There were no significant differences in time between blood draws for those with increased PRODH (n=3), versus those with no increase (n=3, p=0.2). […] In a linear regression model, PRODH percent change was a significant predictor of total Brief Psychiatric Rating Scale (BPRS) score approximately 8 days following treatment initiation (p=0.047), after adjusting for baseline total BPRS score. Furthermore, the linear relationship between PRODH change and adjusted BPRS score was highly significant (r=−0.92, p=0.025).
Exploratory analysis of PRODH expression levels were also performed in first-episode, never-medicated SZ patients (n=6). Male, first-episode, never-medicated SZ patients were recruited at the Bellevue Hospital CPEP. A 15 ml blood sample was collected at admission to the CPEP, and peripheral PRODH expression was measured using Affymetrix U133v2.0 arrays (PRODH is one of the 54,000 transcripts). A post-treatment measurement of PRODH expression was also obtained (mean time between blood draws=8.3 days).

Compound: vitamin D
- risk of schizophrenia [1]: significantly reduced risk
- PRODH expression (probeset 214203_s_at) (PRODH expression [2]): significantly upregulates; also recorded: upregulation
- plasma proline following Vitamin D treatment (plasma proline [3]): trend for plasma proline to decrease
- plasma proline following Vitamin D treatment (plasma proline [3]; listed as vitamin D): decreased
- PRODH expression (probeset 40042_r_at) (PRODH expression [4]): upregulated
- PRODH expression (probeset 40042_r_at) (PRODH expression [4]; listed as vitamin D): significantly upregulates
- lower risk of psychosis-like symptoms [5]: 37%

Compound: C=C1/C(=C\C=C2/CCC[C@]3(C)[C@@H]([C@H](C)CCCC(C)(C)O)CC[C@@H]23)C[C@@H](O)C[C@@H]1O [1alpha,25-dihydroxy-vitamin-D3]
- PRODH expression (probeset 214203_s_at) (PRODH expression [2]): upregulation

Compound: CCCC(CCC)C(=O)O [valproic acid]
- effect on plasma proline level (plasma proline [6]): significant effect

Compound: Cc1nc2n(c(=O)c1CCN1CCC(c3noc4cc(F)ccc34)CC1)CCCC2 [risperidone]
- PRODH expression post-treatment level (mean) (PRODH expression [7]; all subjects n=6, mean 8.3 days between blood draws, pre level 6.10±0.41, p=0.3): 6.24±0.35 expression units
- decrease of PRODH expression after onset of treatment (PRODH expression [7]; no-change group, n=3, non-significant, p=0.15): 2.3%
- change in PRODH expression between pre and post assay (PRODH expression [7]; subset of patients (n=3), p=0.034): significantly upregulated
- mean percent change (increase) of PRODH expression after onset of treatment (PRODH expression [7]; subset of subjects with increase, n=3, p=0.04): 7.3%
